This note sets out measurements from US20220233472A1, “VETERINARY BROMHEXINE HYDROCHLORIDE SOLUBLE POWDER, PREPARATION METHOD AND USE THEREOF” (Qingdao Agricultural University, priority 2021, published 2022).

Where a name gives a salt, the structure may show the parent alone.

The data set in a line: Pharmacokinetic tests of bromhexine hydrochloride soluble powder in chickens. The class given is in vivo. The conditions noted are these: oral, soluble powder at 50, 150 and 250 mg/kg·bw. The procedure: Pharmacokinetic tests of bromhexine hydrochloride soluble powder in chickens were carried out based on three administration dosages of 50 mg/kg·bw, 150 mg/kg·bw and 250 mg/kg·bw.

Regarding `CN(Cc1cc(Br)cc(Br)c1N)C1CCCCC1` [bromhexine, Bromhexine hydrochloride], the pharmacokinetic characteristic result is listed as “linear pharmacokinetic characteristic”.
